Results reported in US6184370A, “Receptor-binding determinant from leukaemia inhibitory factor” (Amrad Corporation Limited, priority 1994, dated 2001).

Tests used:
[1] = system: mLBP (soluble mLIF-R α-chain); test: Competitive inhibition of [125I]mLIF binding to mLBP; set-up: species or system mouse; conditions: in words
Procedure: Normal mouse serum was used as a source of mLBP. For competitive binding experiments, 50 μl aliquots of unlabelled LIF or a mouse-human LIF hybrid were added to 96-well filtration assay plates containing a 0.65 micron Durapore membrane (Millipore, Mass., U.S.A.) with 20 μl aliquots of a 1/10 to 1/20 dilution of normal mouse serum, 10 μl radiolabelled ligand and 25 μl Concanavalin-A Sepharose 4B (ConA-Sepharose, Pharmacia, Uppsala) (diluted 1:4 in 100 mM sodium acetate pH6.0 containing 1 mM MnCl2, 1 mM MgCl2 and 1 mM CaCl2; this and all subsequent buffers contained 0.02% w/v sodium azide and 0.02% v/v Tween 20) and incubated at room temperature overnight with agitation. Bound and free radioactivity were separated by vacuum filtration of the supernatant and the ConA-Sepharose pellet was washed once with 200 μl cold PBS. Assay plates containing the cell pellet were then exposed to a phosphor screen (Molecular Dynamics, Calif., U.S.A.) for 16-24 hours and the results quantified using Imagequant version 3.0 software (Molecular Dynamics).
The structural integrity of all m-hLIF chimeras was also verified by evaluating their ability to bind correctly to the mLIF-R α-chain.

M1 cells [2] = conditions: background statement; cited from earlier work
[3] = system: murine M1 leukaemic colonies; test: M1 differentiation assay (specific biological activity); format: cell-based
Procedure: The functional activity of the m-hLIF hybrids was assayed by their ability to induce differentiation in murine M1 leukaemic colonies. M1 differentiation assays were performed as described (Metcalf et al, 1988). The specific activity of each hybrid was expressed as the units of M1 differentiation-inducing activity per milligram of protein.
The protein concentration of each purified sample was determined by amino acid analysis, and the amount of biologically active protein in each sample was estimated by its ability to induce differentiation in mouse M1 myeloid leukaemic colonies. An internal standard of mLIF (10^4 U/ml) was used to normalise all M1 cell bioassays (50 U/ml of LIF is defined as the concentration of LIF required for half maximal stimulation).

[4] = system: mLBP (soluble mLIF-R α-chain); test: Competitive inhibition of [125I]hLIF binding to mLBP (hLIF-like activity score); set-up: species or system mouse; conditions: logarithmic scale, hLIF = 100%, mLIF = 0%; mean±SEM
Description: Reference is made herein to the subject molecule having at least about 35% hLIF-like activity. More preferably, the molecule has at least about 50% hLIF-like activity and even more preferably at least about 70% hLIF-like activity. hLIF-like activity is defined in terms of the ability for a molecule to compete for ^125 I-hLIF binding to mLBP based on the equation: [formula]
wherein xm is the dose of unlabelled mLIF; xh is the dose of unlabelled hLIF; xc is the dose of the molecule (e.g. protein, polypeptide or peptide) required to give 50% inhibition of ^125 I-hLIF binding to mLBP.
Normal mouse serum was used as a source of mLBP. […] Bound and free radioactivity were separated by vacuum filtration of the supernatant and the ConA-Sepharose pellet was washed once with 200 μl cold PBS. Assay plates containing the cell pellet were then exposed to a phosphor screen (Molecular Dynamics, Calif., U.S.A.) for 16-24 hours and the results quantified using Imagequant version 3.0 software (Molecular Dynamics). […]

M1 cells [5] = test: Serum dose inhibition of M1 colony differentiation by normal mouse serum (mLBP); format: cell-based, murine; conditions: up to 200 U/ml hLIF
Procedure: For serum dose inhibition assays, the specific activity of each LIF preparation was determined by titration in cultures of M1 cells. Aliquots of normal mouse serum (containing approximately 5 μg/ml mLBP) were then added in serial 2-fold dilutions to cultures of M1 cells that also contained a just maximal concentration (200 U) of mLIF (SEQ. ID. NO:1), hLIF (SEQ. ID. NO:2) or m-hLIF hybrid. Assays including mLIF and hLIF gave identical results when either crude mouse serum or a highly purified preparation of mLBP was used. Hybrids were assessed for mLIF or hLIF character from the dilution of serum required to block 50% of their M1 cell differentiation-inducing activity.
A 1:4 to 1:8 dilution of normal mouse serum (equivalent to ~0.5-1 μg/ml mLBP) is required to block 50% of the M1 differentiation-inducingactivity of up to 200 U/ml mLIF, whereas, due to the higher affinity of hLIF for mLBP, a 1:8192 dilution of serum (~0.6 ng/ml mLBP) is sufficient to block 50% of the M1 activity of up to 200 U/ml hLIF. This ability of mLBP to inhibit the differentiation-inducing activity of LIF in a species-specific manner was utilized as a second assay that distinguished hLIF from mLIF. […]

Substance: hLIF: human leukaemia inhibitory factor, H1-180 (SEQ. ID. NO:2), recombinant from E. coli
- ability to compete for [125I]mLIF binding to mLBP [1]: approximately equal ability
- mLBP more potent inhibitor of hLIF than mLIF (inhibition of biological responses to LIF) (M1 cells [2]): approximately 1000 fold
- biological activity in a mouse cell bioassay, in words [3]: nearly equal biological activities
- specific biological activity (units of LIF activity per milligram of protein) ([3]; mouse M1 cells, 50 U/ml = half maximal stimulation): 1-3×10^8 U/mg
- hLIF-like activity (percentage human score) calculated from ID50 for inhibition of [125I]hLIF binding to mLBP [4]: 100%
- mLBP concentration equivalent to serum dilution blocking 50% of M1 activity (M1 cells [5]): ~ 0.6 ng/ml
